# Values quoted from earlier work as cited in patent US10500190B1, “Sublingual or buccal administration of melatonin and/or valerian” (priority 2019, dated 2019).
# Legend:
# [1] = not given; remark: listed apart in the source
compound,measurement,setting,value
"COc1ccc2[nH]cc(CCNC(C)=O)c2c1 [melatonin, N-acetyl-5-methoxytrypta mine]",variation of peak plasma concentrations,oral,over 20 fold
same,time after administration for the blood plasma concentration of melatonin to reach its peak,oral preparations,more than 30 minutes
same,solubility in water or other aqueous biological fluids,[1],poorly soluble
